US20240368135A1 (VERTEX PHARMACEUTICALS INCORPORATED, priority 2021, published 2024)

Target: human NaV 1.8 (Homo sapiens, UniProt Q9Y5Y9)
Assay: E-VIPR assay detecting and measuring NaV inhibition properties
Assay type: cell-based
Settings: HEK cells expressing truncated human NaV 1.8; no human serum; read-out: IC50 in the E-VIPR Assay
How it was run: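 HEK cells expressing truncated, fully active human NaV1.8, with KIR2.1 BacMam co-transduction, were loaded with CC2-DMPE/DiSBAC6(3) voltage-sensing dyes for 20 min at room temperature. Compounds were tested in 11-point 3-fold dilutions (300 nM top final), optionally with 25% human serum, under electrical stimulation with FRET read-out.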

human NaV 1.8, sequence (Q9Y5Y9 126-399 limits assumed): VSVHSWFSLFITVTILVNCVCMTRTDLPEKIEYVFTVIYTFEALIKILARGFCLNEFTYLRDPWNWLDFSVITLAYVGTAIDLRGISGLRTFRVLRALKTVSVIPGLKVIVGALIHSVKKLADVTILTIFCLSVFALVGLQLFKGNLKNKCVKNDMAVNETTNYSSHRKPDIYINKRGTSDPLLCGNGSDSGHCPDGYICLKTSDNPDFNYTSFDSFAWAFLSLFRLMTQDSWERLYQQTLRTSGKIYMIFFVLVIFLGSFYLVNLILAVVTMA
human NaV 1.8, sequence (Q9Y5Y9 660-890 limits assumed): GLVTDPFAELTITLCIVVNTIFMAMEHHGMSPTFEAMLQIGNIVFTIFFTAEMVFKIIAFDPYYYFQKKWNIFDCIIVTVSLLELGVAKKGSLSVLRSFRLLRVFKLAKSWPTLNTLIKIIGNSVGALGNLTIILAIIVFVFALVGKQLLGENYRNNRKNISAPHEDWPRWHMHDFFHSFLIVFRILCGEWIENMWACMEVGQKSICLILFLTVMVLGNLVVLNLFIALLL
human NaV 1.8, sequence (Q9Y5Y9 1148-1722 limits assumed): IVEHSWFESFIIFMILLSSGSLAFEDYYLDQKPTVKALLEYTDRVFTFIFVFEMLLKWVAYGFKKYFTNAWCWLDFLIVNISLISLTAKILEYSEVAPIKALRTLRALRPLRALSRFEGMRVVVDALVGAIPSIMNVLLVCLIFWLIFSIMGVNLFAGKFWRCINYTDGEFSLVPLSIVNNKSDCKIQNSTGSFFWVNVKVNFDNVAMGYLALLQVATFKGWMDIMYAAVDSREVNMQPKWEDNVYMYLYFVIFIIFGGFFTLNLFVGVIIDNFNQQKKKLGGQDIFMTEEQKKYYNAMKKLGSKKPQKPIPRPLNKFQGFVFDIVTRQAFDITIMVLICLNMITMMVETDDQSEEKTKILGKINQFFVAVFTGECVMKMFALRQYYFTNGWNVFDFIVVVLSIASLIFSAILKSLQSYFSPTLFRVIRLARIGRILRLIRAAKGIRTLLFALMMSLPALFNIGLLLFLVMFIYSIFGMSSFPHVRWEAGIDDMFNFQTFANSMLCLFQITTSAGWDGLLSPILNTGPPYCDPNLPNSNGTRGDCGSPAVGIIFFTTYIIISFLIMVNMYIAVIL

IC50 [nM]	SMILES
< 10	CN=S(C)(=O)c1cc(NC(=O)C2OC(C)(C(F)(F)F)C(C)C2c2ccc(F)c(C)c2OC)ccn1 (centres unmarked) [Compound 152, N-[2-(N,S-dimethylsulfonimidoyl)-4-pyridyl]-3-(4-fluoro-2-methoxy-3-methyl-phenyl)-4,5-dimethyl-5-(trifluoromethyl)tetrahydrofuran-2-carboxamide]
10 to 100	COc1c(C2C(C(=O)Nc3ccc(C(N)=O)nc3)OC(C)(C(F)(F)F)C2C)ccc(C(F)F)c1F (centres unmarked) [Compound 158, 5-[[3-[4-(difluoromethyl)-3-fluoro-2-methoxy-phenyl]-4,5-dimethyl-5-(trifluoromethyl)tetrahydrofuran-2-carbonyl]amino]pyridine-2-carboxamide]
≥ 1000	COc1c(C2C(C(=O)Nc3ccc(C(N)=O)nc3)OC(C)(C(F)(F)F)C2C)ccc(C(F)F)c1F (centres unmarked) [Compound 159, 5-[[3-[4-(difluoromethyl)-3-fluoro-2-methoxy-phenyl]-4,5-dimethyl-5-(trifluoromethyl)tetrahydrofuran-2-carbonyl]amino]pyridine-2-carboxamide]
< 10	COc1c([C@H]2[C@H](C(=O)Nc3cn(S(C)(=O)=O)nc3C)O[C@@](C)(C(F)(F)F)[C@H]2C)ccc(F)c1F [Compound 180, (2R,3S,4S,5R)-3-(3,4-difluoro-2-methoxyphenyl)-4,5-dimethyl-N-(3-methyl-1-(methylsulfonyl)-1H-pyrazol-4-yl)-5-(trifluoromethyl)tetrahydrofuran-2-carboxamide]
10 to 100	COc1c([C@H]2[C@H](C(=O)Nc3ccnc(CN4CCOCC4)c3)O[C@@](C)(C(F)(F)F)[C@H]2C)ccc(F)c1F [Compound 181, (2R,3S,4S,5R)-3-(3,4-difluoro-2-methoxyphenyl)-4,5-dimethyl-N-(2-(morpholinomethyl)pyridin-4-yl)-5-(trifluoromethyl)tetrahydrofuran-2-carboxamide]
10 to 100	COc1c([C@H]2[C@H](C(=O)Nc3ccnc(CN4CCC(F)(F)C4)c3)O[C@@](C)(C(F)(F)F)[C@H]2C)ccc(F)c1F [Compound 182, (2R,3S,4S,5R)-3-(3,4-difluoro-2-methoxyphenyl)-N-(2-((3,3-difluoropyrrolidin-1-yl)methyl)pyridin-4-yl)-4,5-dimethyl-5-(trifluoromethyl)tetrahydrofuran-2-carboxamide]

The remaining lines, values behind:

SMILES	IC50 [nM]
Cc1c(F)ccc(C2C(C(=O)Nc3ccn(C)c(=O)c3)OC(C)(C(F)(F)F)C2C)c1OC(F)F (centres unmarked) [Compound 98, 3-[2-(difluoromethoxy)-4-fluoro-3-methyl-phenyl]-4,5-dimethyl-N-(1-methyl-2-oxo-4-pyridyl)-5-(trifluoromethyl)tetrahydrofuran-2-carboxamide]	< 10
CCOc1c(C2C(C(=O)Nc3ccnc(S(C)(=O)=NC)c3)OC(C)(C(F)(F)F)C2C)ccc(F)c1F (centres unmarked) [Compound 113, N-[2-(N,S-dimethylsulfonimidoyl)-4-pyridyl]-3-(2-ethoxy-3,4-difluoro-phenyl)-4,5-dimethyl-5-(trifluoromethyl)tetrahydrofuran-2-carboxamide]	< 10
CCOc1c(C2C(C(=O)Nc3cc(S(C)(=N)=O)c[n+](C)c3)OC(C)(C(F)(F)F)C2C)ccc(F)c1F (centres unmarked) [Compound 114, 3-(2-ethoxy-3,4-difluoro-phenyl)-4,5-dimethyl-N-[1-methyl-5-(methylsulfonimidoyl)pyridin-1-ium-3-yl]-5-(trifluoromethyl)tetrahydrofuran-2-carboxamide]	100 to 1000
CC(C)Oc1c(C2C(C(=O)Nc3cc(S(C)(=O)=O)ccn3)OC(C)(C(F)(F)F)C2C)ccc(F)c1F (centres unmarked) [Compound 115, 3-(3,4-difluoro-2-isopropoxy-phenyl)-4,5-dimethyl-N-(4-methylsulfonyl-2-pyridyl)-5-(trifluoromethyl)tetrahydrofuran-2-carboxamide]	≥ 1000
CC(C)Oc1c(C2C(C(=O)Nc3cc(S(C)(=O)=O)ccn3)OC(C)(C(F)(F)F)C2C)ccc(F)c1F (centres unmarked) [Compound 116, 3-(3,4-difluoro-2-isopropoxy-phenyl)-4,5-dimethyl-N-(4-methylsulfonyl-2-pyridyl)-5-(trifluoromethyl)tetrahydrofuran-2-carboxamide]	100 to 1000
